One molecule from publication PMC10609273, “Radiosynthesis and Early Evaluation of a Positron Emission Tomography Imaging Probe [^18F]AGAL Targeting Alpha-Galactosidase A Enzyme for Fabry Disease” (Molecules, 2023) can be followed below.

Some results are limits rather than exact numbers.

Holding throughout (assay type): in vitro ADME
Series [1] in a line: In vitro liver microsomal metabolism study, rat. To be noted: rat liver microsomes. As for the experimental part: (§1) Metabolic stability was assessed by incubating compounds in the presence of human, rat, and mouse liver microsomal fractions (Xenotech, Kansas City, KS, USA). All chemicals and reagents, including control compounds, were purchased from commercial sources such as Sigma-Aldrich (St. Louis, MO, USA) or Toronto Research Chemicals (North York, ON, Canada). Liver microsomal incubations were conducted with 100 mM phosphate buffer, 0.5 mg/mL of liver microsomal protein, 2 mM NADPH, 2.5 mM UDPGA, 3 mM MgCl2, alamethicin, and 1 μM test article for a total incubation volume of 80 µL. All reagents except the liver microsomes were mixed together and aliquoted (60 μL) into 96-well plates. The reaction was initiated by adding the microsomes (20 μL). At 0, 3, 7, 12, 20, and 30 min time points, the reactions were terminated with the addition of acetonitrile-containing carbutamide (as an internal standard). The terminated samples were then centrifuged at 2 °C to pellet the protein and the supernatant was injected onto an LC–MS. The test article was monitored for loss over time and the t1/2 was determined. The calculated t1/2 was then used as described below to determine the Eh (hepatic extraction ratio) for both human and rat.
(§2) The intrinsic clearance (CLint), hepatic clearance (CLh), and hepatic extraction ratio (Eh) were calculated using the equations below. CLint = (0.693/t1/2 in vitro) × (mL incubation volume/mg microsomal protein) × (X mg of microsomal protein/gram of liver) × (Y g of liver/kg of body weight)(1) CLh = Q × CLint/Q + CLint(2) Eh = CLh/Q(3) where: • CLint = intrinsic clearance (calculated from microsomal incubations) • X = 40 for human, 41.5 for rat and 45 for mouse • Y = 21.4 for human, 40 for rat and 50 for mouse • t1/2 = half-life • CLh = hepatic clearance • Q = liver blood flow rate = 1.24 L/h/kg for human, 4.8 L/h/kg for rat, and 5.4 L/h/kg for mouse • Eh = hepatic extraction ratio • CLh = hepatic clearance
In general terms: Liver microsomes are vesicles of endoplasmic reticulum, rich in cytochrome P450 enzymes.

Series [2] can be described thus: Plasma stability study, human. As for the experimental part:
Briefly, plasma stability was assessed by incubating compounds in the presence of human (pooled) and mouse (pooled) plasma (Bioreclamation, Westbury, NY, USA). All chemicals and reagents including control compounds were purchased from commercial sources such as Sigma-Aldrich or Toronto Research Chemicals. Plasma incubations were conducted by placing plasma (95 μL) in a 96-well microtiter plate and warming to 37 °C for 5 min. The reaction was initiated with the addition of the test article (5 μL of 20 μM), totaling 100 μL in incubation volume. At 0, 15, 30, 60, and 120 min time points, the reactions were terminated with the addition of acetonitrile-containing carbutamide (as an internal standard). The terminated samples were then centrifuged at 2 °C to pellet the protein, and the supernatant was injected onto an LC–MS. The test article was monitored for loss over time and the t1/2 was determined.

A short description of series [3]: In vitro liver microsomal metabolism study, human. To be noted: human liver microsomes. On the procedure: as §1, §2
For series [4], the target named is T1, CYP1A2 (Homo sapiens, UniProt P05177).
T1 construct: from tissue; host or cells: pooled human liver microsomes (n = 200)
T1 sequence (P05177 1-516): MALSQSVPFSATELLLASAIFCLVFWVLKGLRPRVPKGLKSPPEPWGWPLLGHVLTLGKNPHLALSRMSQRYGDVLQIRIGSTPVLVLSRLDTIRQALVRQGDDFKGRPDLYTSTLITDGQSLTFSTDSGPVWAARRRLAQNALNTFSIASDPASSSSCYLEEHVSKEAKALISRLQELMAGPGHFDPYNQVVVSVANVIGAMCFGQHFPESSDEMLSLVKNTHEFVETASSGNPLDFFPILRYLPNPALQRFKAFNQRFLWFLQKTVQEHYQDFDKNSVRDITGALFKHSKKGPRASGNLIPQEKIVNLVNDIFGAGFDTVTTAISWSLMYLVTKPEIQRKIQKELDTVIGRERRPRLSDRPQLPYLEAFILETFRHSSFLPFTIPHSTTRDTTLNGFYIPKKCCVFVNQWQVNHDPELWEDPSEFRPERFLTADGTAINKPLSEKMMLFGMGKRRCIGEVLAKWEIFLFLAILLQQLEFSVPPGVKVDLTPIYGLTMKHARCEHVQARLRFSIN
Description: Reversible CYP inhibition in pooled HLMs. The following applies: 30 µM compound, substrate phenacetin. As for the experimental part:
All chemicals and reagents including control compounds were purchased from commercial sources such as Sigma-Aldrich or Toronto Research Chemicals. The test article was tested for reversible inhibition of CYPs in human liver microsomes (HLM) (0.2 mg/mL protein) at a concentration range of 0–30 μM. Each condition was incubated in duplicate. The test article (0–30 μM), NADPH, and the CYP-selective probe substrate were incubated in a 96-well plate at 37 °C in 0.1 M potassium phosphate buffer, pH 7.4. The reactions were initiated by adding the HLMs. The total reaction volume was 100 μL.
After the incubation period (10 min for CYP1A2, 2B6, and 2C9; 15 min for CYP2C19; and 4 min for CYP2C8 and 2D6 to accommodate linear kinetic conditions) at 37 °C, the reactions were terminated by the addition of 100 μL of ice-cold acetonitrile-containing carbutamide as an IS, then centrifuged at 2500× g for 10 min at 2 °C. A 150 μL aliquot of supernatant for each CYP assay, except for CYP1A2, was then transferred to a new plate for analysis. For CYP1A2, 80 μL of supernatant was transferred to the plate and further diluted with 80 μL of water before analysis. All samples were analyzed with liquid chromatography with tandem mass spectrometry (LC–MS/MS).

Usually CLint scaled stands for the rate of metabolic loss divided by the concentration. Turning to `O=C(CCCCCCCn1cc(CCCF)nn1)N1[C@@H]2[C@H](O)[C@@H](O)[C@@H](O)[C@@H](CO)[C@@H]21` [AGAL], in series [1], the CLh was determined as 3.34 L/h/kg; the “Eh (hepatic extraction ratio)” value stood at 0.695; the “microsomal stability, clearance in words” value is “moderately cleared”. In addition, the CLint scaled at 1 µM in series [1] (1 μM, NADPH + UDPGA) was 182 mL/min/kg. For the same molecule, the parent remaining in series [2] (30 min post-incubation) was determined as 93%. In addition, the half-life at 1 µM in series [2] (pooled plasma, 37 °C, read-out: Plasma Half-Life, t1/2) is 208 min. Further, in series [3], the CLh was less than 0.281 L/h/kg; the “Eh (hepatic extraction ratio)” value is recorded as less than 0.226; the “microsomal stability, clearance in words” value is “minimally cleared”. Also, the CLint scaled at 1 µM in series [3] (1 μM, NADPH + UDPGA) was less than 6.05 mL/min/kg. In addition, the “reversible inhibition of CYP1A2 activity” value in series [4] is reported as “no significant loss of CYP activity”.
